33 compounds from US7612211B2, “Benzimidazole TRPV1 inhibitors” (Janssen Pharmaceutica N.V., priority 2006, dated 2009) can be followed below.

This assay concerns the target T1, hTRPV1 (Homo sapiens, UniProt Q8NER1).
T1 construct: expressed in transfected cells; host or cells: HEK293
In words: Human TRPV1 (hTRPV1) functional assay, FLIPR intracellular Ca2+, capsaicin challenge. Format: cell-based. The note with it: HEK293 cells expressing hTRPV1, capsaicin 0.030 μM challenge; for inhibition at 0.5 µM: test concentration of 0.5 μm, read-out: percent inhibition (symbol a); for IC50: derived from a variety of test concentrations, read-out: IC50 value (symbol c); for inhibition at 0.2 µM: test concentration of 0.2 μm, read-out: percent inhibition (symbol b). A digest of the protocol:
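HEK293 cells expressing the channel, loaded with Calcium 3 dye, were exposed to compounds for 5 min before capsaicin 0.030 μM (~80% maximal). FLIPR Ca2+ read; IC50/EC50 from quadruplicate concentration-response, or percent inhibition at 0.5 μm or 0.2 μm.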

T1 sequence (Q8NER1 whole entry): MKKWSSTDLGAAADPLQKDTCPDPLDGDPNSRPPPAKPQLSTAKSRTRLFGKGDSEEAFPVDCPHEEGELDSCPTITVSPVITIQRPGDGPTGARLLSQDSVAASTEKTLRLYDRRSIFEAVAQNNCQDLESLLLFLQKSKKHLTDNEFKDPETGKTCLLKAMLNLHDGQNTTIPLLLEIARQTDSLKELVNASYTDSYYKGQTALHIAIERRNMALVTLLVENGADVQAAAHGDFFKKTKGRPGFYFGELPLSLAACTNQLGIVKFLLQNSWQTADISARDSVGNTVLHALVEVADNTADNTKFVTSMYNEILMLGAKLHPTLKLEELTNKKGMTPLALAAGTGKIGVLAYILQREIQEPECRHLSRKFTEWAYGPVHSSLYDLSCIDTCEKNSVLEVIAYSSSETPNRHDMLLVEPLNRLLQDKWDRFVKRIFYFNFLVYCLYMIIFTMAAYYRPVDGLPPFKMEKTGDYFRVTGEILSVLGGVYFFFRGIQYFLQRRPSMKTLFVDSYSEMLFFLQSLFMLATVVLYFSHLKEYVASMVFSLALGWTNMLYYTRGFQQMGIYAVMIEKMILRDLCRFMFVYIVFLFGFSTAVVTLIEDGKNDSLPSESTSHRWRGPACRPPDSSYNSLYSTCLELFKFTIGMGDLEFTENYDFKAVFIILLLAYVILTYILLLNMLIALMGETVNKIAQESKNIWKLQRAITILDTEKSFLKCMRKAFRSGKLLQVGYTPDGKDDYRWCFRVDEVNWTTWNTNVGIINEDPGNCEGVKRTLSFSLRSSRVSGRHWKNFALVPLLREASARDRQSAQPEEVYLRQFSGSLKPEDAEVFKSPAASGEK

A word on the inhibition: it is the drop in the measured response relative to a control, in per cent. As for `OCc1ccc(-c2ccc3[nH]c(COc4ccc(C(F)(F)F)cc4)nc3c2)cc1` [Cpd 118, {4-[2-(4-trifluoromethyl-phenoxymethyl)-1H-benzoimidazol-5-yl]-phenyl}-methanol], the inhibition at 0.5 µM was 2%. The same measure, in the same setting: the figure for `Oc1ccccc1-c1ccc2[nH]c(COc3ccc(C(F)(F)F)cc3)nc2c1` [Cpd 119, 2-[2-(4-trifluoromethyl-phenoxymethyl)-1H-benzoimidazol-5-yl]-phenol] is 14%.

Take `Oc1cccc(-c2ccc3[nH]c(COc4ccc(C(F)(F)F)cc4)nc3c2)c1` [Cpd 120, 3-[2-(4-trifluoromethyl-phenoxymethyl)-1H-benzoimidazol-5-yl]-phenol]: the inhibition at 0.5 µM was found to be 15%. Same read-out and setting: the same measure for `Oc1ccc(-c2ccc3[nH]c(COc4ccc(C(F)(F)F)cc4)nc3c2)cc1` [Cpd 121, 4-[2-(4-trifluoromethyl-phenoxymethyl)-1H-benzoimidazol-5-yl]-phenol]: 9%; for `Nc1ccccc1-c1ccc2[nH]c(COc3ccc(C(F)(F)F)cc3)nc2c1` [Cpd 122, 2-[2-(4-trifluoromethyl-phenoxymethyl)-1H-benzoimidazol-5-yl]-phenylamine]: 21%. As for `Nc1cccc(-c2ccc3[nH]c(COc4ccc(C(F)(F)F)cc4)nc3c2)c1` [Cpd 123, 3-[2-(4-trifluoromethyl-phenoxymethyl)-1H-benzoimidazol-5-yl]-phenylamine], the inhibition at 0.5 µM was 7%. Same read-out and setting: the same measure for `Nc1ccc(-c2ccc3[nH]c(COc4ccc(C(F)(F)F)cc4)nc3c2)cc1` [Cpd 124, 4-[2-(4-trifluoromethyl-phenoxymethyl)-1H-benzoimidazol-5-yl]-phenylamine]: 12%; for `CNS(=O)(=O)c1ccc(-c2ccc3[nH]c(COc4ccc(C(F)(F)F)cc4)nc3c2)cc1` [Cpd 125, N-methyl-4-[2-(4-trifluoromethyl-phenoxymethyl)-1H-benzoimidazol-5-yl]-benzenesulfonamide]: 11%. For the compound `FC(F)(F)c1ccc(OCc2nc3cc(-c4ccccc4)ccc3[nH]2)cc1` [Cpd 126, 5-phenyl-2-(4-trifluoromethyl-phenoxymethyl)-1H-benzoimidazole], the inhibition at 0.5 µM stood at 4%. The IC50 is the concentration that inhibits the measured activity by half. `COC(=O)c1ccccc1-c1ccc2[nH]c(COc3ccc(C(F)(F)F)cc3)nc2c1` [Cpd 127, 2-[2-(4-trifluoromethyl-phenoxymethyl)-1H-benzoimidazol-5-yl]-benzoic acid methyl ester]: the half-inhibitory concentration (IC50) is 24.3 nM and the inhibition at 0.5 µM stood at 85%.

Take `CN(C)S(=O)(=O)c1cccc(-c2ccc3[nH]c(COc4ccc(C(F)(F)F)cc4)nc3c2)c1` [Cpd 128, N,N-dimethyl-3-[2-(4-trifluoromethyl-phenoxymethyl)-1H-benzoimidazol-5-yl]-benzenesulfonamide]: the inhibition at 0.5 µM amounted to 13%. Still for that read-out and setting: the figure for `CN(C)S(=O)(=O)c1ccc(-c2ccc3[nH]c(COc4ccc(C(F)(F)F)cc4)nc3c2)cc1` [Cpd 129, N,N-dimethyl-4-[2-(4-trifluoromethyl-phenoxymethyl)-1H-benzoimidazol-5-yl]-benzenesulfonamide] is 8%; for `COC(=O)c1cccc(-c2ccc3[nH]c(COc4ccc(C(F)(F)F)cc4)nc3c2)c1` [Cpd 130, 3-[2-(4-trifluoromethyl-phenoxymethyl)-1H-benzoimidazol-5-yl]-benzoic acid methyl ester] it is 11%.

For `COC(=O)c1ccc(-c2ccc3[nH]c(COc4ccc(C(F)(F)F)cc4)nc3c2)cc1` [Cpd 131, 4-[2-(4-trifluoromethyl-phenoxymethyl)-1H-benzoimidazol-5-yl]-benzoic acid methyl ester], the inhibition at 0.5 µM is 5%. Regarding `NS(=O)(=O)c1ccc(C(F)(F)F)cc1-c1ccc2[nH]c(COc3ccc(C(F)(F)F)cc3)nc2c1` [Cpd 132, 4-trifluoromethyl-2-[2-(4-trifluoromethyl-phenoxymethyl)-1H-benzoimidazol-5-yl]-benzenesulfonamide], the IC50 is 85 nM and the inhibition at 0.5 µM stood at 100%. For the compound `NS(=O)(=O)c1cc(C(F)(F)F)ccc1-c1ccc2[nH]c(COc3ccc(C(F)(F)F)cc3)nc2c1` [Cpd 133, 5-trifluoromethyl-2-[2-(4-trifluoromethyl-phenoxymethyl)-1H-benzoimidazol-5-yl]-benzenesulfonamide], the concentration for half-maximal inhibition (IC50) was determined as 105 nM and the inhibition at 0.5 µM came out at 92%. On to `NS(=O)(=O)c1ccc(F)cc1-c1ccc2[nH]c(COc3ccc(C(F)(F)F)cc3)nc2c1` [Cpd 134, 4-fluoro-2-[2-(4-trifluoromethyl-phenoxymethyl)-1H-benzoimidazol-5-yl]-benzenesulfonamide], for which the IC50 was 16 nM and the inhibition at 0.5 µM is 98%. The like results for `NS(=O)(=O)c1c(F)cc(F)cc1-c1ccc2[nH]c(COc3ccc(C(F)(F)F)cc3)nc2c1` [Cpd 135, 2,4-difluoro-6-[2-(4-trifluoromethyl-phenoxymethyl)-1H-benzoimidazol-5-yl]-benzenesulfonamide] were, in that order, 47 nM and 100%. The like results for `NS(=O)(=O)c1ccccc1-c1ccc2[nH]c(NCc3ccc(C(F)(F)F)cc3)nc2c1` [Cpd 136, 2-[2-(4-trifluoromethyl-benzylamino)-1H-benzoimidazol-5-yl]-benzenesulfonamide] were, in that order, 68 nM and 99%.

`CN(Cc1ccc(C(F)(F)F)cc1)c1nc2cc(-c3ccccc3S(N)(=O)=O)ccc2[nH]1` [Cpd 137, 2-{2-[methyl-(4-trifluoromethyl-benzyl)-amino]-1H-benzoimidazol-5-yl}-benzenesulfonamide]: the inhibition at 0.5 µM stood at 37%. As to `NS(=O)(=O)c1ccccc1-c1ccc2[nH]c(OCc3ccc(C(F)(F)F)cc3)nc2c1` [Cpd 138, 2-[2-(4-trifluoromethyl-benzyloxy)-1H-benzoimidazol-5-yl]-benzenesulfonamide], the inhibition at 0.5 µM came to 18%. Regarding `NS(=O)(=O)c1ccccc1-c1ccc2[nH]c(C(F)(F)Oc3ccc(C(F)(F)F)cc3)nc2c1` [Cpd 139, 2-{2-[difluoro-(4-trifluoromethyl-phenoxy)-methyl]-1H-benzoimidazol-5-yl}-benzenesulfonamide], the IC50 turned out to be 21 nM and the inhibition at 0.5 µM is 99%. On the same counts, the results for `CNS(=O)(=O)c1ccccc1-c1ccc2[nH]c(C(F)(F)Oc3ccc(C(F)(F)F)cc3)nc2c1` [Cpd 140, 2-{2-[difluoro-(4-trifluoromethyl-phenoxy)-methyl]-1H-benzoimidazol-5-yl}-N-methyl-benzenesulfonamide] are 17 nM and 101%. The like results for `CN(C)S(=O)(=O)c1ccccc1-c1ccc2[nH]c(C(F)(F)Oc3ccc(C(F)(F)F)cc3)nc2c1` [Cpd 141, 2-{2-[difluoro-(4-trifluoromethyl-phenoxy)-methyl]-1H-benzoimidazol-5-yl}-N,N-dimethyl-benzenesulfonamide] were, in that order, 83 nM and 99%.

Take `O=S(=O)(CCO)c1ccccc1-c1ccc2[nH]c(COc3ccc(C(F)(F)F)cc3)nc2c1` [Cpd 142, 2-{2-[2-(4-trifluoromethyl-phenoxymethyl)-1H-benzoimidazol-5-yl]-benzenesulfonyl}-ethanol]: the IC50 stood at 8 nM and the inhibition at 0.2 µM worked out at 97%. Turning to `CC(O)c1ccccc1-c1ccc2[nH]c(COc3ccc(C(F)(F)F)cc3)nc2c1` (stereo not drawn) [Cpd 143, 1-{2-[2-(4-trifluoromethyl-phenoxymethyl)-1H-benzoimidazol-5-yl]-phenyl}-ethanol], the IC50 came to 13 nM.

With `CC(C)C(O)c1ccccc1-c1ccc2[nH]c(COc3ccc(C(F)(F)F)cc3)nc2c1` (stereo not drawn) [Cpd 144, 2-methyl-1-{2-[2-(4-trifluoromethyl-phenoxymethyl)-1H-benzoimidazol-5-yl]-phenyl}-propan-1-ol], the concentration for half-maximal inhibition (IC50) was 114 nM and the inhibition at 0.2 µM amounted to 82%.

In the case of `CC(C)(C)C(O)c1ccccc1-c1ccc2[nH]c(COc3ccc(C(F)(F)F)cc3)nc2c1` (stereo not drawn) [Cpd 145, 2,2-dimethyl-1-{2-[2-(4-trifluoromethyl-phenoxymethyl)-1H-benzoimidazol-5-yl]-phenyl}-propan-1-ol], the inhibition at 0.2 µM was found to be 12%.

Regarding `CC(O)C(=O)c1ccccc1-c1ccc2[nH]c(COc3ccc(C(F)(F)F)cc3)nc2c1` (stereo not drawn) [Cpd 146, 2-hydroxy-1-{2-[2-(4-trifluoromethyl-phenoxymethyl)-1H-benzoimidazol-5-yl]-phenyl}-propan-1-one], the inhibition at 0.2 µM worked out at 72%. Turning to `CC(C)(O)C(=O)c1ccccc1-c1ccc2[nH]c(COc3ccc(C(F)(F)F)cc3)nc2c1` [Cpd 147, 2-hydroxy-2-methyl-1-{2-[2-(4-trifluoromethyl-phenoxymethyl)-1H-benzoimidazol-5-yl]-phenyl}-propan-1-one], the IC50 is 7 nM and the inhibition at 0.2 µM was 98%. On the same counts, the results for `CN(C)C(=O)C(O)c1ccccc1-c1ccc2[nH]c(COc3ccc(C(F)(F)F)cc3)nc2c1` (stereo not drawn) [Cpd 148, N,N-dimethyl-2-hydroxy-2-{2-[2-(4-trifluoromethyl-phenoxymethyl)-1H-benzoimidazol-5-yl]-phenyl}-acetamide] are 58 nM and 89%. The like results for `CON(C)C(=O)C(O)c1ccccc1-c1ccc2[nH]c(COc3ccc(C(F)(F)F)cc3)nc2c1` (stereo not drawn) [Cpd 149, 2-hydroxy-N-methoxy-N-methyl-2-{2-[2-(4-trifluoromethyl-phenoxymethyl)-1H-benzoimidazol-5-yl]-phenyl}-acetamide] were, in that order, 46 nM and 89%. `OCC(O)c1ccccc1-c1ccc2[nH]c(COc3ccc(C(F)(F)F)cc3)nc2c1` (stereo not drawn) [Cpd 150, 1-{2-[2-(4-trifluoromethyl-phenoxymethyl)-1H-benzoimidazol-5-yl]-phenyl}-ethane-1,2-diol]: the IC50 worked out at 16 nM and the inhibition at 0.2 µM was 99%.
